How the values were obtained:
log P (pH 2.3) = type: physicochemical
Puccinia triticina [1] = test: Puccinia triticina test (wheat)/curative; type: in vivo; conditions: 192 h, 500 ppm active substance, curative, evaluation 8 days after inoculation, read-out: degree of effectiveness
Method: (§1) • Solvent: 50 parts by weight of N,N-dimethylacetamide • Emulsifier: 1 part by weight of alkylaryl polyglycol ether (polyoxyethylene (16) tristearylphenyl ether)
(§2) To prepare a suitable active substance composition, 1 part by weight of active substance is mixed with the given amounts of solvent and emulsifier and the concentrate is diluted to the desired concentration using water.
For the testing of curative effectiveness, young plants are sprayed with a suspension of spores of Puccinia triticina. The plants remain in an incubation chamber at 20° C. and 100% relative humidity for 48 hours and are then sprayed with the active substance composition in the application rate given. The plants are placed in a greenhouse at a temperature of approximately 20° C. and a relative humidity of approximately 80%.
(§3) Evaluation is carried out 8 days after the inoculation. In this connection, 0% means a degree of effectiveness corresponding to that of the control, while a degree of effectiveness of 100% means that no infestation is observed.

Puccinia triticina [2] = test: Puccinia triticina test (wheat)/protective; type: in vivo; conditions: 192 h, 500 ppm active substance, protective, evaluation 8 days after inoculation, read-out: degree of effectiveness
Method: as §1, §2
For the testing of protective effectiveness, young plants are sprayed with the active substance composition in the application rate given. After the spray coating has been dried on, the plants are sprayed with a suspension of spores of Puccinia triticina. The plants remain in an incubation chamber at 20° C. and 100% relative humidity for 48 hours. The plants are placed in a greenhouse at a temperature of approximately 20° C. and a relative humidity of approximately 80%.
as §3

Sphaerotheca fuliginea = test: Sphaerotheca test (cucumber)/protective; type: in vivo; conditions: Podosphaera fuliginea, 168 h, 500 ppm active substance, protective, evaluation 7 days after inoculation, read-out: degree of effectiveness
Method: • Solvent: 49 parts by weight of N,N-dimethylformamide • Emulsifier: 1 part by weight of alkylaryl polyglycol ether (polyoxyethylene (16) tristearylphenyl ether) To prepare a suitable active substance composition, 1 part by weight of active substance is mixed with the given amounts of solvents and emulsifier and the concentrate is diluted to the desired concentration using water. For the testing of protective effectiveness, young cucumber plants are sprayed with the active substance composition in the application rate given. One day after treatment, the plants are inoculated with a suspension of spores of Sphaerotheca fuliginea. The plants are then placed in a greenhouse at 70% relative humidity and a temperature of 23° C. Evaluation is carried out 7 days after the inoculation. In this connection, 0% means a degree of effectiveness corresponding to that of the control, while a degree of effectiveness of 100% means that no infestation is observed.

logP (log P (pH 2.3)): 1.62
SMILES: CCN(C)C=Nc1cc(C)c(Oc2nc(C3(Cl)CC3)ns2)cc1Cl [Compound 3, N′-(2-chloro-4-{[3-(1-chlorocyclopropyl)-1,2,4-thiadiazol-5-yl]oxy}-5-methylphenyl)-N-ethyl-N-methylimidoformamide]
pest or weed control at 500 ppm (Puccinia triticina [1]): ≥ 70% | pest or weed control at 500 ppm (Puccinia triticina [2]): ≥ 70% | pest or weed control at 500 ppm (Sphaerotheca fuliginea): ≥ 70%

Source: patent US8334235B2, “Thiadiazolyloxyphenylamidines and use thereof as fungicides” (Bayer Cropscience AG, priority 2008, dated 2012)
